In the Kinase Knowledgebase extract (Sharma et al. 2016) one finds IC50 data, which are given here for 15 compounds.

Some results are limits rather than exact numbers.

Assay [1] deals with MAPK14 (UniProt Q16539). Nature of the assay: CSBP Kinase Inhibition.
In assay [2] the target is MAPK14 (UniProt Q16539). Nature of the assay: CSBP Binding Inhibition.

MAPK14, sequence (Q16539 whole entry, looked up): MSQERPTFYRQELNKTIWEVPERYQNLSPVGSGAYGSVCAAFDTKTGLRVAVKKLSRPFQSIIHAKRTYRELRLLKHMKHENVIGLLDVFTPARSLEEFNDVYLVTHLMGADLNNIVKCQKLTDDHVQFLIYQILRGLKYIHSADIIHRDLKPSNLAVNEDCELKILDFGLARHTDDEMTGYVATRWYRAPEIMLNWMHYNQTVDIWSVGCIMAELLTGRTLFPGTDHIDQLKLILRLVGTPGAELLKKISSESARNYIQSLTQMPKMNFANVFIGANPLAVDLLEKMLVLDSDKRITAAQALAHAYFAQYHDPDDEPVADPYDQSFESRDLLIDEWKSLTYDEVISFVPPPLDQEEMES

The term IC50 denotes the point on the concentration scale where inhibition reaches its midpoint. Low readings indicate greater potency in that assay, high ones weaker potency in that assay. Turning to `COc1nccc(-c2c(-c3ccc(F)cc3)ncn2[C@H]2CC[C@H](N)CC2)n1`, the IC50 in assay [1] was under 50 µM. `COc1nccc(-c2c(-c3ccc(F)cc3)ncn2[C@H]2CC[C@H](OC3CCCCO3)CC2)n1` (stereo not given in full): the 50% inhibitory concentration (IC50) in assay [1] is under 50 µM. As to `COc1nccc(-c2c(-c3ccc(F)cc3)ncn2[C@H]2CC[C@](C)(O)CC2)n1`, the IC50 in assay [1] is under 50 µM. In assay [2], `CC(C)Oc1nccc(-c2c(-c3ccc(F)cc3)ncn2C2CCC(=O)CC2)n1` returned an IC50 of under 50 µM. `COc1nccc(-c2c(-c3ccc(F)cc3)ncn2[C@H]2CC[C@@](O)(CO)CC2)n1.COc1nccc(-c2c(-c3ccc(F)cc3)ncn2[C@H]2CC[C@](O)(CO)CC2)n1` yielded an IC50 in assay [1] of under 50 µM. For `CCCC(=O)O[C@H]1CC[C@H](n2cnc(-c3ccc(F)cc3)c2-c2ccnc(OC)n2)CC1`, in assay [1], the IC50 is under 50 µM. With `COc1nccc(-c2c(-c3ccc(F)cc3)ncn2C2CCC(=O)CC2)n1`, in assay [2], the IC50 was under 50 µM. In assay [1], `COc1nccc(-c2c(-c3ccc(F)cc3)ncn2[C@H]2CC[C@@](C)(O)CC2)n1` came in with an IC50 of under 50 µM.

`O=C1CCC(n2cnc(-c3ccc(F)cc3)c2-c2ccnc(O)n2)CC1` yielded an IC50 in assay [2] of under 50 µM.

Consider `COc1nccc(-c2c(-c3ccc(F)cc3)ncn2[C@H]2CC[C@@](C)(O)CC2)n1.COc1nccc(-c2c(-c3ccc(F)cc3)ncn2[C@H]2CC[C@](C)(O)CC2)n1`, for which the half-inhibitory concentration (IC50) in assay [2] was under 50 µM. In assay [2], `CSc1nccc(-c2c(-c3ccc(F)cc3)ncn2[C@H]2CC[C@H](O)CC2)n1` yielded an IC50 of under 50 µM. The compound `COc1nccc(-c2c(-c3ccc(F)cc3)ncn2[C@H]2CC[C@@H](N)CC2)n1` gave an IC50 in assay [1] of under 50 µM. Regarding `CSc1nccc(-c2c(-c3ccc(F)cc3)ncn2C2CCC(=O)CC2)n1`, the IC50 in assay [2] is under 50 µM. As for `CC(C)Oc1nccc(-c2c(-c3ccc(F)cc3)ncn2C2CCC(O)CC2)n1` (stereo not given), the IC50 in assay [2] is under 50 µM. In the case of `Oc1nccc(-c2c(-c3ccc(F)cc3)ncn2C2CCC(O)CC2)n1` (stereo not given), the IC50 in assay [1] was under 50 µM.
